Patent US20260324644A1, “HERBICIDE COMPOSITION AND A METHOD FOR BURNDOWN APPLICATION” (UPL Mauritius Limited, priority 2022, published 2026)
Read-outs that look alike come from different tables or passages of the source.

Legend:
[1] = system: Phyllanthus maderaspatensis; assay: Greenhouse trial, burndown (non-crop) weed control, Phyllanthus maderaspatensis; format: in vivo; conditions: 495 g a.i./ha
Procedure: (§1) Methodology: Greenhouse trials were conducted to evaluate the efficacy of the L-glufosinate on broad spectrum weeds at non-crop stage (burndown application).
(§2) The soil used was medium black soil. All treatments were in 3 replications per treatment with a spray volume of about 150 L/ha.
(§3) The percentage efficacy was calculated after 10 and 15 days of application (DAA). The herbicidal composition used was L-glufosinate (SL) at 150 g a.i./L and 280 g a.i./L. The application rate was 495 g a.i./ha. The target weeds were Amaranthus viridis, Amaranthus spinosus, Acalypha indica, Digera arvensis, Euphorbia geniculate, Portulaca oleracea, Parthenium hysterophrous, Phyllanthus maderaspatensis and the concentration of the herbicide and the results are recorded in Table 3.

[2] = system: plants; conditions: background statement; cited from earlier work
[3] = system: Euphorbia geniculate; assay: Greenhouse trial, burndown (non-crop) weed control, Euphorbia geniculate; format: in vivo; conditions: for % Control after 10 DAA: Example 1; for % Control: 495 g a.i./ha
Procedure: as §1, §2
(§4) The percentage efficacy was calculated after 10 days of application (DAA). The target weeds were Amaranthus viridis, E. geniculate, P. oleracea, Brachiaria spp. and the concentration of the herbicide and the results are recorded in Table 1.
(§5) The percentage efficacy was calculated after 10 and 15 days of application (DAA). The herbicidal composition used was L-glufosinate (SL) at 150 g a.i./L. The application rate was 495 g a.i./ha. The target weeds were Amaranthus virids, A. spinosus, C. Album, E. geniculate, P. oleracea, P. hysterophrous, Brachiaria spp., D. retroflexa, E. colonum and the concentration of the herbicide and the results are recorded in Table 2.
as §3

[4] = system: Amaranthus spinosus; assay: Greenhouse trial, burndown (non-crop) weed control, Amaranthus spinosus; format: in vivo; conditions: 495 g a.i./ha
Procedure: as §1, §2, §5, §3

[5] = system: Acalypha indica; assay: Greenhouse trial, burndown (non-crop) weed control, Acalypha indica; format: in vivo; conditions: 495 g a.i./ha
Procedure: as §1, §2, §3

[6] = system: glutamine synthetase (GS); conditions: role: inhibitor, GS of bacteria and plants, cited from earlier work
[7] = system: Brachiaria spp.; assay: Greenhouse trial, burndown (non-crop) weed control, Brachiaria spp.; format: in vivo; conditions: for % Control: 495 g a.i./ha
Procedure: as §1, §2, §4, §5
(§6) The percentage efficacy was calculated after 10 and 15 days of application (DAA). The herbicidal composition used was L-glufosinate (SL) at 150 g a.i./L and 280 g a.i./L. The application rate was 495 g a.i./ha. The target weeds were Brachiaria spp., Dinebra retroflexa, Echonochloa colonum and the concentration of the herbicide and the results are recorded in Table 4.

[8] = system: C. Album; assay: Greenhouse trial, burndown (non-crop) weed control, C. Album; format: in vivo; conditions: Example 2, SL 150 g a.i./L, 495 g a.i./ha
Procedure: as §1, §2, §5

[9] = system: Amaranthus viridis; assay: Greenhouse trial, burndown (non-crop) weed control, Amaranthus viridis; format: in vivo; conditions: for % Control: 495 g a.i./ha
Procedure: as §1, §2, §4, §5, §3

[10] = system: Parthenium hysterophrous; assay: Greenhouse trial, burndown (non-crop) weed control, Parthenium hysterophrous; format: in vivo; conditions: 495 g a.i./ha
Procedure: as §1, §2, §5, §3

[11] = system: Portulaca oleracea; assay: Greenhouse trial, burndown (non-crop) weed control, Portulaca oleracea; format: in vivo; conditions: 495 g a.i./ha
Procedure: as §1, §2, §5, §3

[12] = system: E. colonum; assay: Greenhouse trial, burndown (non-crop) weed control, E. colonum; format: in vivo; conditions: Example 2, SL 150 g a.i./L, 495 g a.i./ha
Procedure: as §1, §2, §5

[13] = system: Dinebra retroflexa; assay: Greenhouse trial, burndown (non-crop) weed control, Dinebra retroflexa; format: in vivo; conditions: 495 g a.i./ha
Procedure: as §1, §2, §5, §6

[14] = system: Digera arvensis; assay: Greenhouse trial, burndown (non-crop) weed control, Digera arvensis; format: in vivo; conditions: 495 g a.i./ha
Procedure: as §1, §2, §3

[15] = Example 3, SL 150 g a.i./L, 10 DAA
[16] = Example 3, SL 150 g a.i./L, 15 DAA
[17] = Example 3, SL 280 g a.i./L, 10 DAA
[18] = Example 3, SL 280 g a.i./L, 15 DAA
[19] = Example 1, L-glufosinate (SL) 200 g a.i./L, rate 150 g a.i./ha, 10 DAA
[20] = Example 1, L-glufosinate (SL) 200 g a.i./L, rate 165 g a.i./ha, 10 DAA
[21] = Example 1, L-glufosinate (SL) 200 g a.i./L, rate 200 g a.i./ha, 10 DAA
[22] = Example 1, L-glufosinate (SL) 200 g a.i./L, rate 220 g a.i./ha, 10 DAA
[23] = Example 1, L-glufosinate (SL) 280 g a.i./L, rate 150 g a.i./ha, 10 DAA
[24] = Example 1, L-glufosinate (SL) 280 g a.i./L, rate 165 g a.i./ha, 10 DAA
[25] = Example 1, L-glufosinate (SL) 280 g a.i./L, rate 200 g a.i./ha, 10 DAA
[26] = Example 1, L-glufosinate (SL) 280 g a.i./L, rate 220 g a.i./ha, 10 DAA
[27] = Example 2, SL 150 g a.i./L, 10 DAA
[28] = Example 2, SL 150 g a.i./L, 15 DAA

## CP(=O)(O)CC[C@H](N)C(=O)O.N [L-glufosinate, (S)-2-amino-4-(hydroxy(methyl)phosphonoyl)butanoic acid]
[1]; [15]
  % Control: 93%
[1]; [16]
  % Control: 100%
[1]; [17]
  % Control: 97%
[1]; [18]
  % Control: 97%
[2]
  herbicidal activity: herbicidally active
[3]; L-glufosinate (SL) 200 g a.i./L, rate 150 g a.i./ha, 10 DAA, E. geniculate
  % Control after 10 DAA: 93%
[3]; L-glufosinate (SL) 200 g a.i./L, rate 165 g a.i./ha, 10 DAA, E. geniculate
  % Control after 10 DAA: 95%
[3]; L-glufosinate (SL) 200 g a.i./L, rate 200 g a.i./ha, 10 DAA, E. geniculate
  % Control after 10 DAA: 97%
[3]; L-glufosinate (SL) 200 g a.i./L, rate 220 g a.i./ha, 10 DAA, E. geniculate
  % Control after 10 DAA: 93%
[3]; L-glufosinate (SL) 280 g a.i./L, rate 150 g a.i./ha, 10 DAA, E. geniculate
  % Control after 10 DAA: 92%
[3]; L-glufosinate (SL) 280 g a.i./L, rate 165 g a.i./ha, 10 DAA, E. geniculate
  % Control after 10 DAA: 90%
[3]; L-glufosinate (SL) 280 g a.i./L, rate 200 g a.i./ha, 10 DAA, E. geniculate
  % Control after 10 DAA: 95%
[3]; L-glufosinate (SL) 280 g a.i./L, rate 220 g a.i./ha, 10 DAA, E. geniculate
  % Control after 10 DAA: 93%
[3]; Example 2, SL 150 g a.i./L, 10 DAA, E. geniculate
  % Control: 100%
[3]; Example 2, SL 150 g a.i./L, 15 DAA, E. geniculate
  % Control: 100%
[3]; Example 3, SL 150 g a.i./L, 10 DAA, Euphorbia geniculate
  % Control: 80%
[3]; Example 3, SL 150 g a.i./L, 15 DAA, Euphorbia geniculate
  % Control: 100%
[3]; Example 3, SL 280 g a.i./L, 10 DAA, Euphorbia geniculate
  % Control: 90%
[3]; Example 3, SL 280 g a.i./L, 15 DAA, Euphorbia geniculate
  % Control: 100%
[4]; Example 2, SL 150 g a.i./L, 10 DAA, A. spinosus
  % Control: 100%
[4]; Example 2, SL 150 g a.i./L, 15 DAA, A. spinosus
  % Control: 100%
[4]; Example 3, SL 150 g a.i./L, 10 DAA, Amaranthus spinosus
  % Control: 100%
[4]; Example 3, SL 150 g a.i./L, 15 DAA, Amaranthus spinosus
  % Control: 100%
[4]; Example 3, SL 280 g a.i./L, 10 DAA, Amaranthus spinosus
  % Control: 100%
[4]; Example 3, SL 280 g a.i./L, 15 DAA, Amaranthus spinosus
  % Control: 100%
[5]; [15]
  % Control: 80%
[5]; [16]
  % Control: 100%
[5]; [17]
  % Control: 87%
[5]; [18]
  % Control: 100%
[6]; listed as L-isomer of glufosinate
  inhibition of glutamine synthetase (GS): competitive inhibitor
[6]; listed as L-isomer
  inhibition of glutamine synthetase (GS): only the L-isomer inhibits GS
[7]; [19]
  % Control after 10 DAA: 100%
[7]; [20]
  % Control after 10 DAA: 100%
[7]; [21]
  % Control after 10 DAA: 100%
[7]; [22]
  % Control after 10 DAA: 100%
[7]; [23]
  % Control after 10 DAA: 100%
[7]; [24]
  % Control after 10 DAA: 100%
[7]; [25]
  % Control after 10 DAA: 100%
[7]; [26]
  % Control after 10 DAA: 100%
[7]; [27]
  % Control: 93%
[7]; [28]
  % Control: 100%
[7]; Example 4, SL 150 g a.i./L, 10 DAA
  % Control: 100%
[7]; Example 4, SL 150 g a.i./L, 15 DAA
  % Control: 100%
[7]; Example 4, SL 280 g a.i./L, 10 DAA
  % Control: 100%
[7]; Example 4, SL 280 g a.i./L, 15 DAA
  % Control: 100%
[8]; 10 DAA
  % Control: 100%
[8]; 15 DAA
  % Control: 100%
[9]; [19]
  % Control after 10 DAA: 100%
[9]; [20]
  % Control after 10 DAA: 100%
[9]; [21]
  % Control after 10 DAA: 100%
[9]; [22]
  % Control after 10 DAA: 100%
[9]; [23]
  % Control after 10 DAA: 100%
[9]; [24]
  % Control after 10 DAA: 100%
[9]; [25]
  % Control after 10 DAA: 100%
[9]; [26]
  % Control after 10 DAA: 100%
[9]; [27]
  % Control: 100%
[9]; [28]
  % Control: 100%
[9]; [15]
  % Control: 100%
[9]; [16]
  % Control: 100%
[9]; [17]
  % Control: 100%
[9]; [18]
  % Control: 100%
[10]; Example 2, SL 150 g a.i./L, 10 DAA, P. hysterophrous
  % Control: 100%
[10]; Example 2, SL 150 g a.i./L, 15 DAA, P. hysterophrous
  % Control: 100%
[10]; Example 3, SL 150 g a.i./L, 10 DAA, Parthenium hysterophrous
  % Control: 93%
[10]; Example 3, SL 150 g a.i./L, 15 DAA, Parthenium hysterophrous
  % Control: 93%
[10]; Example 3, SL 280 g a.i./L, 10 DAA, Parthenium hysterophrous
  % Control: 97%
[10]; Example 3, SL 280 g a.i./L, 15 DAA, Parthenium hysterophrous
  % Control: 97%
[11]; Example 2, SL 150 g a.i./L, 10 DAA, P. oleracea
  % Control: 88%
[11]; Example 2, SL 150 g a.i./L, 15 DAA, P. oleracea
  % Control: 82%
[11]; Example 3, SL 150 g a.i./L, 10 DAA, Portulaca oleracea
  % Control: 100%
[11]; Example 3, SL 150 g a.i./L, 15 DAA, Portulaca oleracea
  % Control: 100%
[11]; Example 3, SL 280 g a.i./L, 10 DAA, Portulaca oleracea
  % Control: 100%
[11]; Example 3, SL 280 g a.i./L, 15 DAA, Portulaca oleracea
  % Control: 100%
[12]; 10 DAA
  % Control: 90%
[12]; 15 DAA
  % Control: 90%
[13]; Example 2, SL 150 g a.i./L, 10 DAA, D. retroflexa
  % Control: 100%
[13]; Example 2, SL 150 g a.i./L, 15 DAA, D. retroflexa
  % Control: 100%
[13]; Example 4, SL 150 g a.i./L, 10 DAA, Dinebra retroflexa
  % Control: 83%
[13]; Example 4, SL 150 g a.i./L, 15 DAA, Dinebra retroflexa
  % Control: 70%
[13]; Example 4, SL 280 g a.i./L, 10 DAA, Dinebra retroflexa
  % Control: 83%
[13]; Example 4, SL 280 g a.i./L, 15 DAA, Dinebra retroflexa
  % Control: 70%
[14]; [15]
  % Control: 100%
[14]; [16]
  % Control: 100%
[14]; [17]
  % Control: 100%
[14]; [18]
  % Control: 100%
